From patent publication US20050209157A1, “Short bioactive peptides and methods for their use” (priority 2001, published 2005)
No end group written: not given here.

Assays:
[1] = system: human red blood cells (RBC); experiment: in vitro; assay type: cell-based; details: hemolytic assay, concentration at 50% hemolysis, 1 hour at 37° C.
[2] = system: human leukocyte (WBC) cells; experiment: Stimulation and proliferation of leukocytes, Alamar Blue; assay type: cell-based; details: compared to untreated positive control cells; Alamar Blue
[3] = Solubility of peptides in sheep serum; assay type: physicochemical

Substance	LD50 [1]	stimulatory and/or inhibitory action on growth of human leukocyte (WBC) cells [2]	Solubility ([3]; sheep serum, […], 70% serum)	Solubility ([3]; sheep, 70% sheep serum)
MPKWKVFKKIEKVGRNIRNGIVKAGPAIAVLGEAKALG-NH2 [P12, reference compound]	> (> indicates greater than 1000)	stimulatory (and/or proliferative) at all concentrations through 500 μg/ml		
FALKALKKLKKALKKAL-NH2 [P153]			Soluble	≥ 1280 µg/mL
